This is an account of results in ChEMBL document CHEMBL4049404, “Discovery of (R)-1-(3-(4-Amino-3-(3-chloro-4-(pyridin-2-ylmethoxy)phenyl)-1H-pyrazolo[3,4-d]pyrimidin-1-yl)piperidin-1-yl)prop-2-en-1-one (CHMFL-EGFR-202) as a Novel Irreversible EGFR Mutant Kinase Inhibitor with a Distinct Binding Mode” (J Med Chem, 2017).

The target of data set [1] is Tyrosine-protein kinase BTK (Homo sapiens, UniProt Q06187). Kind of data set: Binding affinity to full-length wild-type human BTK expressed in mammalian system assessed as control score at 1 uM by KINOMEScan assay.
The target of data set [2] is Receptor tyrosine-protein kinase erbB-2 (Homo sapiens, UniProt P04626). Kind of data set: Binding affinity to wild-type human ERBB2 expressed in mammalian system assessed as control score at 1 uM by KINOMEScan assay.
Chain of Receptor tyrosine-protein kinase erbB-2 (P04626 whole entry): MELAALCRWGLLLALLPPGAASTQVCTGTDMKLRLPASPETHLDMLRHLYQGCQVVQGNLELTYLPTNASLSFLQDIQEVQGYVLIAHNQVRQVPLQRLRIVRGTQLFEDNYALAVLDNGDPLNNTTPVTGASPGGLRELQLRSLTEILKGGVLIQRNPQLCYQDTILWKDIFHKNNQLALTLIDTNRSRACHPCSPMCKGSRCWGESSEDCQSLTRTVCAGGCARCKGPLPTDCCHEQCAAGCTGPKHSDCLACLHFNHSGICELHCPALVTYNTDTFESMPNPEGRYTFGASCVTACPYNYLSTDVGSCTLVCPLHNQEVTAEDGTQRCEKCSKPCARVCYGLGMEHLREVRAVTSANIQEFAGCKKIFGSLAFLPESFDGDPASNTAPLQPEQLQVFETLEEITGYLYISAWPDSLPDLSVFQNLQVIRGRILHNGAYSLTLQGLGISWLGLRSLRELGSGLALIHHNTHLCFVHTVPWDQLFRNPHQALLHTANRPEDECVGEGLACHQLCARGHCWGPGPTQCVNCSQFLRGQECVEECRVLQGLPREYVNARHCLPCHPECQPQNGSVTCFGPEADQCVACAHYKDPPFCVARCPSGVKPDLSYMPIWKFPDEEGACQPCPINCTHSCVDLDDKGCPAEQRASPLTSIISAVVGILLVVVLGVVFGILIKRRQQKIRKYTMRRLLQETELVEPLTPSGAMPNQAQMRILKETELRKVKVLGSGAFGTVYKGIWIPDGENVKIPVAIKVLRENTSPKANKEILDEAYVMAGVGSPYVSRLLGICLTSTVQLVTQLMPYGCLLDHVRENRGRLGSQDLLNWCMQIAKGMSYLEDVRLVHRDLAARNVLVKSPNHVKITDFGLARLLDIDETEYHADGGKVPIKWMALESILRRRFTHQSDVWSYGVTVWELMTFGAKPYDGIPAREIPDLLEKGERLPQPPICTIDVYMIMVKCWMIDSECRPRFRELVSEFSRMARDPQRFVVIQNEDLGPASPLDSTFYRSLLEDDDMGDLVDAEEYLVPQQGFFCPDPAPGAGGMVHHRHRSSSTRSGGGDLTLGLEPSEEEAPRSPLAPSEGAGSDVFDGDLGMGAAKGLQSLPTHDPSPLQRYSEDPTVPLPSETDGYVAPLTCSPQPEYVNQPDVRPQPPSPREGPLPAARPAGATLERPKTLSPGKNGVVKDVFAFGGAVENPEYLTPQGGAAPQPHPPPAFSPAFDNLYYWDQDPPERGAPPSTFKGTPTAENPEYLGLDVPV
Data set [3] deals with T1, Receptor tyrosine-protein kinase erbB-4 (Homo sapiens, UniProt Q15303). Kind of data set: Binding affinity to wild-type human ERBB4 expressed in bacterial system assessed as control score at 1 uM by KINOMEScan assay.
T1 sequence (Q15303 whole entry, the tested form may be a part): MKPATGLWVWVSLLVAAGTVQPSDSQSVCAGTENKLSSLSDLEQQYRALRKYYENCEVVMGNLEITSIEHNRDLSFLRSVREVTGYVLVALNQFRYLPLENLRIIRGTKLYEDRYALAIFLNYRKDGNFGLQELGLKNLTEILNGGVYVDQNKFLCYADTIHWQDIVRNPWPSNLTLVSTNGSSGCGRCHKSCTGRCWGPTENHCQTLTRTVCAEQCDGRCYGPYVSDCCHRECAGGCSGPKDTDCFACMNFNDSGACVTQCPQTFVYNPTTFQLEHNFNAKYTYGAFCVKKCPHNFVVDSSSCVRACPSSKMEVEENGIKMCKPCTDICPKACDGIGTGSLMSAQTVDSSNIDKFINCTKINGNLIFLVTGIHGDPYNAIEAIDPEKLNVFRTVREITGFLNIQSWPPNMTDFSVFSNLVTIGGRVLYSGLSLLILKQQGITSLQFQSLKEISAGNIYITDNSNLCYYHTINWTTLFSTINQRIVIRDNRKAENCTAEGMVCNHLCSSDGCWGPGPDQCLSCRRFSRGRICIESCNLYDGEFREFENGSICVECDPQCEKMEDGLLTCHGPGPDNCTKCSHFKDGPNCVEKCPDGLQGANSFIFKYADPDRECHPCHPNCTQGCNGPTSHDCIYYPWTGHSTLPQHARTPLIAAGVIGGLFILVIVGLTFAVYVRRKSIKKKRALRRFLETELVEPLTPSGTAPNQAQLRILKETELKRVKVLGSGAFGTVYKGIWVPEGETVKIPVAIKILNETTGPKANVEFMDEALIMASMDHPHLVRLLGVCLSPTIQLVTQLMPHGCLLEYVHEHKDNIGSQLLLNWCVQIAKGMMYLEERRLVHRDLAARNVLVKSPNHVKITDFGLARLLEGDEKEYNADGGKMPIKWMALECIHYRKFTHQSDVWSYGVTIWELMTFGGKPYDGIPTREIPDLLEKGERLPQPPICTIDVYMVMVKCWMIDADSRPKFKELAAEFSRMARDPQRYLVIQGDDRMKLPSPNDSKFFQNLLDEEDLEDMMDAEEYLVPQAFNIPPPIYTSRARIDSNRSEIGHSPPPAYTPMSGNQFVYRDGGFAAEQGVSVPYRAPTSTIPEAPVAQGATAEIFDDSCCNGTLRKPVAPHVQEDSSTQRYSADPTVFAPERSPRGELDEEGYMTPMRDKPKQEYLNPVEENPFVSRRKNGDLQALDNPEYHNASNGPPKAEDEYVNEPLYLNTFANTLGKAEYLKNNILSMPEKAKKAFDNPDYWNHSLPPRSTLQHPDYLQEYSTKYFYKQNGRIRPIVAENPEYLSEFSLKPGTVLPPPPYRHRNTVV
Data set [4] has as its target T1, Receptor tyrosine-protein kinase erbB-4. Kind of data set: Inhibition of recombinant human N-terminal GST-tagged ERBB4 cytoplasmic domain (708 to 993 residues) expressed in baculovirus by Z'-LYTE assay.
Data set [5] addresses T2, Epidermal growth factor receptor (Homo sapiens, UniProt P00533). Kind of data set: Inhibition of wild-type EGFR in human A549 cells assessed as growth inhibition after 72 hrs by CellTiter-Glo assay. The format is cell-based. The conditions noted are these: a549, 72 h. For orientation: ATP-based viability assays read luminescence as a measure of living cells.
Data set [6] addresses T2, Epidermal growth factor receptor. Kind of data set: Inhibition of wild-type EGFR in human H1355 cells assessed as growth inhibition after 72 hrs by CellTiter-Glo assay. The format is cell-based.
The target in data set [7] is Epidermal growth factor receptor (Homo sapiens, UniProt P00533, EX19DEL). Kind of data set: Inhibition of EGFR exon 19 deletion mutant in human HCC827 cells assessed as reduction in ERK phosphorylation at Thr202/Tyr204 measured after 4 hrs by Western blot analysis. The class given is cell-based. Background: In western blotting, separated proteins are transferred to a membrane and probed.
Chain of Epidermal growth factor receptor (Homo sapiens, UniProt P00533, EX19DEL) (P00533 whole entry, looked up, stated change not applied): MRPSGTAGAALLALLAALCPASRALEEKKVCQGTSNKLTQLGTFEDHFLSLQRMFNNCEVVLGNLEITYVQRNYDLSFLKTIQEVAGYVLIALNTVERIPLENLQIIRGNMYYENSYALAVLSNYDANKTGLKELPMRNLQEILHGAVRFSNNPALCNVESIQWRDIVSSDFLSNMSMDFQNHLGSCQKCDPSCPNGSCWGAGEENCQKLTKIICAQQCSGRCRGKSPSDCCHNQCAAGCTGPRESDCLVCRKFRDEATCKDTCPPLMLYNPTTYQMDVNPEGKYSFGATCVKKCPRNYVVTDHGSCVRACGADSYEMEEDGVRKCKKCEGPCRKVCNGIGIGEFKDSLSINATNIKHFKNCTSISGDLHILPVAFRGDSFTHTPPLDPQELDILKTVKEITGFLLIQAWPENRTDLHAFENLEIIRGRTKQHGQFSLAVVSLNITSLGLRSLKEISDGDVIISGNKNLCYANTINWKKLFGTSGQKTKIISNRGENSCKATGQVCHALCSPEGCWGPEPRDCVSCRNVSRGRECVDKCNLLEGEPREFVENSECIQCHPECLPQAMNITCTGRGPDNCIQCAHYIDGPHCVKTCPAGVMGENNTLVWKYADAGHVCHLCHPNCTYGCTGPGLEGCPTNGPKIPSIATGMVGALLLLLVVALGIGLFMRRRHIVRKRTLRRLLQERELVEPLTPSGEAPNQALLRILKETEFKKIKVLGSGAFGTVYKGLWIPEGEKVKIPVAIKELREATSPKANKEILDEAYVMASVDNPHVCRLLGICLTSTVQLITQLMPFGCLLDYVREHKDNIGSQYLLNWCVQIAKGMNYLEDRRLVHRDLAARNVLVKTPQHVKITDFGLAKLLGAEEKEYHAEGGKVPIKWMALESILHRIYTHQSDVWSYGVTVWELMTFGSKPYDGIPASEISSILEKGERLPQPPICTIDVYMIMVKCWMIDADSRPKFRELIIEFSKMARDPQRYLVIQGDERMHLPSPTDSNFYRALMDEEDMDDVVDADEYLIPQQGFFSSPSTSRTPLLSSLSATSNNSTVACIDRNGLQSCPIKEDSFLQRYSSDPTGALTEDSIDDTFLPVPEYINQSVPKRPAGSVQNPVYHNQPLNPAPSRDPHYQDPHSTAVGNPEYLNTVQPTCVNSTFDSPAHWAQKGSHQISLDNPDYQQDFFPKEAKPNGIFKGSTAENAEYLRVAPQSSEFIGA

In data set [8] the target is T2, Epidermal growth factor receptor. Kind of data set: Inhibition of wild-type EGFR in human A549 cells assessed as reduction in Akt phosphorylation at 473 site at 0.01 to 3 uM by Western blot analysis. The format is cell-based. The conditions noted are these: a549, 3 µM.
The target is the same in data set [9]. Kind of data set: Inhibition of wild-type EGFR in human A549 cells assessed as reduction in 4EBP1 phosphorylation at Thr37/46 site at 0.01 to 3 uM by Western blot analysis. The conditions noted are these: a549, 3 µM. The format is cell-based.
For data set [10] the target is unchanged. Kind of data set: Inhibition of wild-type EGFR in human A549 cells assessed as reduction in ERK phosphorylation at Thr202/Tyr204 site at 0.01 to 3 uM by Western blot analysis. The format is cell-based. The conditions noted are these: a549, 3 µM.
The target is the same in data set [11]. Kind of data set: Inhibition of wild-type EGFR in human NCI-H2122 cells assessed as reduction in eIF4E phosphorylation at Ser209 site at 0.01 to 3 uM by Western blot analysis. The format is cell-based.
Data set [12] has the same target. Kind of data set: Inhibition of wild-type EGFR in human NCI-H2122 cells assessed as reduction in 4EBP1 phosphorylation at Thr37/46 site at 0.01 to 3 uM by Western blot analysis. The class given is cell-based.
For data set [13] the target is unchanged. Kind of data set: Inhibition of wild-type EGFR in human NCI-H2122 cells assessed as reduction in ERK phosphorylation at Thr202/Tyr204 site at 0.01 to 3 uM by Western blot analysis. The format is cell-based.
The nature of data set [14]: Tmax in Sprague-Dawley rat plasma at 1 mg/kg, iv after 8 hrs. The class given is ADME, organism-based.
Data set [15] can be described thus: Half life in Sprague-Dawley rat plasma at 1 mg/kg, iv after 8 hrs. The format is ADME, organism-based.
Data set [16] in a line: Apparent plasma clearance in Sprague-Dawley rat at 1 mg/kg, iv after 8 hrs. The class given is ADME, organism-based.
Data set [17] in a line: MRT (0 to infinity) in Sprague-Dawley rat plasma at 1 mg/kg, iv after 8 hrs. The format is ADME, organism-based.
The test system of a further data set is Rattus norvegicus. Kind of data set: AUC (0 to t) in Sprague-Dawley rat plasma at 10 mg/kg, po after 24 hrs. The class given is ADME, organism-based. Also on record: dose 10 mg/kg, time < 24 hr, route oral. The conditions noted are these: in vivo.
The nature of data set [18]: MRT (0 to infinity) in Sprague-Dawley rat plasma at 10 mg/kg, po after 24 hrs. The class given is ADME, organism-based.

Where only a bound is given, the exact number is not on record here.

T2 sequence (P00533 whole entry): as the sequence (P00533 whole entry, looked up, stated change not applied) above

As for `C=CC(=O)N1CCC[C@@H](n2nc(-c3ccc(OCc4ccccn4)c(Cl)c3)c3c(N)ncnc32)C1`, the Activity in data set [1] was 0.05%; in [2] it was 0%; in [3], 0%. Also, in data set [4], the concentration for half-maximal inhibition (IC50) turned out to be 0.0032 µM. The 50% growth inhibitory concentration (GI50) in data set [5] and in data set [6] was more than 10 µM each time. The EC50 in data set [7] is less than 0.01 µM. The “inhibition (INH)” value in [8], in [9], in [10], in data set [11], in data set [12] and in data set [13] was “Not Active” each time. The time to peak (Tmax) in [14] is 1.02 min. Moreover, in data set [15], the half-life was 18 min. Further, the clearance in data set [16] was found to be 41.3 mL/min/kg. Also, the MRT inf in data set [17] came out at 12.6 min; in [18], 153 min. Also, the AUCt with Rattus norvegicus was in the range of 130 to 415 ng/mL/h.

A word on the IC50: it is the concentration at which inhibition is half-maximal. In general, GI50 refers to the concentration giving 50% growth inhibition. As usually defined, the EC50 is the concentration that produces a half-maximal response. By Tmax is commonly meant the time at which the peak concentration occurs. In general, half-life refers to how long it takes for the measured level to halve. Broadly, the MRT inf is a mean duration of stay, worked out from the concentration-time curve.
